One assay addresses T1, RAP1A (Homo sapiens, UniProt P62834).
T1 sequence (P62834 1-184): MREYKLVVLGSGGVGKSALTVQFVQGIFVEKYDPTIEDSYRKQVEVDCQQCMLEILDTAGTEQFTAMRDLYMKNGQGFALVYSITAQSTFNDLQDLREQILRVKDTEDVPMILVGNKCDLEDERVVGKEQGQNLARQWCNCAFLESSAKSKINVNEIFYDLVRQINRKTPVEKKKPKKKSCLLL
Kind of assay: Auto-palmitoylation of recombinant RAP1A with Alkyne Palmitoyl-CoA (western blot). To be noted: indicated concentrations, 30 mins (FIG. 6B).

The target in a further assay is IDH1WT (Homo sapiens, UniProt O75874). The assay is described as follows: Auto-palmitoylation of recombinant IDH1 WT with Alkyne Palmitoyl-CoA (western blot). The conditions noted are these: indicated concentrations, 30 mins (FIG. 6D).
IDH1WT, sequence (O75874 whole entry): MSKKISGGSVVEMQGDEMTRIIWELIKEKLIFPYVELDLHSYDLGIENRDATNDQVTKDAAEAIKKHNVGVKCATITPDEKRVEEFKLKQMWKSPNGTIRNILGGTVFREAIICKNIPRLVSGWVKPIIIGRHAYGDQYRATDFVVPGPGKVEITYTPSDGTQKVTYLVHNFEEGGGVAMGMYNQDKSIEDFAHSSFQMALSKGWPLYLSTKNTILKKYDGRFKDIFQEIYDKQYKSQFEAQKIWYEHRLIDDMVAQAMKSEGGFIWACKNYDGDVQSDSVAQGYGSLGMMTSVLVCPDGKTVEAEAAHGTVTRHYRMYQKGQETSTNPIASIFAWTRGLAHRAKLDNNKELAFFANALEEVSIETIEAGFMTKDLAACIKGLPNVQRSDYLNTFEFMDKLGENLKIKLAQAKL
Another assay has as its target PCNA (Homo sapiens, UniProt P12004). Kind of assay: Auto-palmitoylation of recombinant PCNA with Alkyne Palmitoyl-CoA (western blot). To be noted: indicated concentrations, 30 mins (FIG. 6A).
For a further assay, the target named is T2, RRAS2 (Homo sapiens, UniProt P62070).
T2 sequence (P62070 1-204): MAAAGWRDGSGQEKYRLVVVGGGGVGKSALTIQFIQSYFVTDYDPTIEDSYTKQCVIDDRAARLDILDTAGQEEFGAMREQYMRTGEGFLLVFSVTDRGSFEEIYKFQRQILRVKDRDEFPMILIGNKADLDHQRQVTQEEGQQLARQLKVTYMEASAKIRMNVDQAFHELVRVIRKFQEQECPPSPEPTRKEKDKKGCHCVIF
Kind of assay: Auto-palmitoylation of recombinant RRAS2 with Alkyne Palmitoyl-CoA (western blot). The conditions noted are these: indicated concentrations, 30 mins (FIG. 6C).

The target of another assay is TEAD2 (Homo sapiens, UniProt Q15562). Kind of assay: Labeling of TEAD2 by covalent probes in vitro (western blot). To be noted: probe 1 μM, 30 mins, western blot (FIG. 1).
TEAD2, sequence (Q15562 whole entry, species assumed): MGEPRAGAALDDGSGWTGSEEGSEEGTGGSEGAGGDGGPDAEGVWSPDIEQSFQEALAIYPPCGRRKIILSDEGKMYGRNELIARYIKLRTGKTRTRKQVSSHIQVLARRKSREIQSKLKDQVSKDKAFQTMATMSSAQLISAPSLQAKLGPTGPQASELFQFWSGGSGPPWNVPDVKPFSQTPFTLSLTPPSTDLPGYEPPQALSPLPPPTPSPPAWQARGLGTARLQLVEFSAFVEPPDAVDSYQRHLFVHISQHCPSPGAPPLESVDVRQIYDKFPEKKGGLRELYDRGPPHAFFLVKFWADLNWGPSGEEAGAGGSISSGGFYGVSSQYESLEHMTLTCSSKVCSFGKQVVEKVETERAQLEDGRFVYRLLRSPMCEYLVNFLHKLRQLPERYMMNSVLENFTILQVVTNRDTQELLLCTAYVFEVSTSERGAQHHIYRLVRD
The test system of the next assay is HEK293A cells. Kind of assay: MS-based proteomics of proteins enriched by covalent probes. The conditions noted are these: for number of proteins collectively targeted by Compound A21, Compound B1 and Compound B4: HEK293A cells, Venn diagram (FIG. 4); for number of proteins enriched by the covalent probes also identified by SLC-ABPP: overlap with SLC-ABPP database (FIG. 5). In kind it is cell-based. The procedure:
For in-cell labeling, HEK293A cells with or without overexpression of proteins of interest were starved in DMEM medium with 10% dialyzed fetal bovine serum (DFBS) for 1 h and labeled using the covalent probes (10 μM) overnight. The cells were then washed and harvested using cold DPBS (14190250, Life Technologies). The cell pellets were isolated by centrifugation (500×g, 10 min) and lysed by TEA lysis buffer (50 mM TEA-HCl, pH 7.4, 150 mM NaCl, 1% Triton X-100, 0.2% SDS, 1×Protease inhibitor-EDTA free cocktail (05892791001, Roche), phosphatase inhibitor cocktail (P0044, Sigma-Aldrich)) on ice for 30 mins. The protein concentration was determined using Bio-Rad assay and adjusted to 1 mg/mL. For lysate labeling, HEK293A cells were grown in DMEM with 10% FBS. When confluence reached ˜90%, the cells were washed and harvested by cold DPBS. The cell pellets were isolated by centrifugation (500×g, 5 min) and resuspended with TEA lysis buffer (50 mM TEA-HCl, pH 7.4, 150 mM NaCl, 1% Triton X-100, IXProtease inhibitor-EDTA free cocktail, phosphatase inhibitor cocktail), incubated on ice for 15 mins, and then sonicated (7 s, 30% duty cycle, output setting=3). After centrifugation (17,000×g, 10 min), the supernatant is transferred to a clean tube. The protein concentration is determined using Bio-Rad assay and adjusted to 1 mg/mL. The lysate was then labeled with DMSO or probes (10 μM) at room temperature for 1 h with rotation. SDS was added to the lysate to a final concentration of 0.2% and the resultant solution retained for further use.
To 1.5 mg of proteomes from cell labeling or lysate labeling as described above were added 150 μL fresh prepared “click” mixture of TBTA (75 μL, 2 mM in 1:4 DMSO: t-BuOH), CuSO4 (30 μL, 50 mM in H2O), TCEP (30 μL, 50 mM in H2O) and Biotin-Azide (15 μL, 10 mM in DMSO). The samples were rotated at room temperature for 1 h. To these samples were then added MeOH (6 mL), CHCl3 (1.5 mL) and H2O (4.5 mL), and the resultant solution was mixed well. After centrifugation (17,000×g, 10 min), the aqueous layers were carefully aspirated leaving a protein disc between the organic and aqueous phases. The protein disc was washed with 6 mL of methanol and isolated by centrifugation (17,000×g, 10 min). The remaining protein pellet was collected and redissolved with 700 μL of 2% SDS in 0.1% PBST. The solution was diluted with 4.9 mL of 0.1% PBST and added 0.1% PBST-washed streptavidin agarose beads (150 μL, 1:1, sigma). After rotation at room temperature for 2 h, the beads were then pelleted by centrifugation (500×g, 5 min) and washed with 0.2% SDS in PBS (3×1 mL). The beads were transferred to a Protein Low-Binding tube and the immobilized proteins were digested by addition of urea (200 μL, 2.0 M in DPBS), CaCl2) (2.0 μL, 100 mM in H2O) and sequence grade porcine trypsin (2 μg; Promega). After digesting overnight at 37° C., the supernatant was transferred to a clean Protein Low-Binding, acidified with HCO2H (formic acid, 16 μL) and stored at −20° C. until the analyzed by LC-MS/MS.

A further assay addresses T3, Myc-TEAD1 C344S mutant (Homo sapiens, UniProt P28347, C359S).
T3 construct: expressed in transfected cells; host or cells: HEK293A
The assay is described as follows: Labeling of transfected Myc-TEAD1 wild type or C344S mutant in HEK293A cells (streptavidin pulldown, western blot). In kind it is cell-based. The conditions noted are these: 10 μM overnight, C344S vs wild type (FIG. 3). The method, then: HEK293A cells was seed in 6 cm dishes overnight and transfected with plasmids using PEI reagent (1 μg/μL). Briefly, proteins of interest and PEI were diluted in serum-free DMEM medium in two tubes (DNA:PEI ratio=1:2). After standing still for 5 mins, the solutions were mixed well and allowed to stand unperturbed for an additional 20 mins. The mixture was then added to dishes directly.
For in-cell labeling, HEK293A cells with or without overexpression of proteins of interest were starved in DMEM medium with 10% dialyzed fetal bovine serum (DFBS) for 1 h and labeled using the covalent probes (10 μM) overnight. The cells were then washed and harvested using cold DPBS (14190250, Life Technologies). […] The protein concentration was determined using Bio-Rad assay and adjusted to 1 mg/mL. […] The protein concentration is determined using Bio-Rad assay and adjusted to 1 mg/mL. […]
100 μL of labeled proteome was treated with 10 μL of freshly prepared “click” mixture containing 1 mM TBTA, 10 mM TCEP, 10 mM CuSO4, 1 mM Biotin-Azide and incubated for 1 h at room temperature. […] The bound proteins were eluted with a buffer containing 10 mM EDTA (pH 8.2) and 95% formamide and analyzed with SDS-PAGE. […]

Structures are written as SMILES.

PCNA, sequence (P12004 whole entry): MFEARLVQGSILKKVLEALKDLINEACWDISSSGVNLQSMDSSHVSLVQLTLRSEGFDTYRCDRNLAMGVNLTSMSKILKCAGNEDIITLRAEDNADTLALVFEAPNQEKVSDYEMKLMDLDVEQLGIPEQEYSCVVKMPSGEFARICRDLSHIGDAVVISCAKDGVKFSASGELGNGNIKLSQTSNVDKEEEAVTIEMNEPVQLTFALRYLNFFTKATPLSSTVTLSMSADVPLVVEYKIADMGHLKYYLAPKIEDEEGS
T3 sequence (P28347 16-426 C359S limits assumed): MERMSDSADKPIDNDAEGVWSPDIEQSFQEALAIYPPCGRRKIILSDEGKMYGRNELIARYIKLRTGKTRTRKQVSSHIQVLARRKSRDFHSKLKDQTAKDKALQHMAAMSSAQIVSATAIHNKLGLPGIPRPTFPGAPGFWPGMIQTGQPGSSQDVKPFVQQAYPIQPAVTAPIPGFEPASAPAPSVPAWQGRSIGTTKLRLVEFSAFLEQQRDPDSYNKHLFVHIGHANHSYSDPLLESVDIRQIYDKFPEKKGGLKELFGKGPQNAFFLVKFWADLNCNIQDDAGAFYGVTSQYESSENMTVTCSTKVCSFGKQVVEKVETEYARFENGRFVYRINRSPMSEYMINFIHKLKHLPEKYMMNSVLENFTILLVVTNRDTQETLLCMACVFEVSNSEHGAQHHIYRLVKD
Protocol for IDH1WT: (§1) Recombinant PCNA (12131-H07B, Sino Biological), RAP1A (PRO-848, Prospec-Tany TechnoGene), RRAS2 (PRO-728, Prospec-Tany TechnoGene), IDH1 (ab113858, Abcam), IDH1R132H (14132, Cayman) are obtained from commercially available source. Recombinant TEAD2 protein were made in-house. All the recombinant proteins contain a His-tag.
(§2) 500 ng of recombinant protein in 50 μL of MES buffer (50 mM, PH 6.4), was contacted with a solution of the covalent probe so that the final concentration of covalent probe in the reaction mixture is 10 μM of covalent probes. After incubation for 30 mins, 50 μL of sample mixture was treated with 5 μL of freshly prepared “click” mixture containing 100 μM TBTA (678937, Sigma-Aldrich), 1 mM TCEP (C4706, Sigma-Aldrich), 1 mM CuSO4 (496130, Sigma-Aldrich), 100 μM Biotin-Azide (1167-5, Click Chemistry Tools) and incubated for another 1 h. To the samples was then added 11 μL of 6×SDS loading buffer (BP-111R, Boston Bio-Products) and the resultant mixture was denatured at 95° C. for 5 mins. SDS-PAGE was used to analyze the samples. Labeling signal was detected by streptavidin-HRP antibody (1:3000, S911, Invitrogen). The total protein level was detected by primary anti-His-tag antibody (1:10000, MA1-21315, Invitrogen) and secondary anti-mouse antibodies (1:5000, 7076S, Cell Signaling).
Protocol for PCNA: as §1, §2
Protocol for RAP1A: as §1, §2
Protocol for RRAS2: as §1, §2
Protocol for TEAD2: as §1, §2

Consider `C#CCCCCCCCCCCCCCC(=O)SCCNC(=O)CCNC(=O)[C@H](O)C(C)(C)COP(=O)(O)OP(=O)(O)OC[C@H]1O[C@@H](n2cnc3c(N)ncnc32)[C@H](O)[C@@H]1OP(=O)(O)O` [Alkyne Palmitoyl-CoA], for which the “auto-palmitoylation (labeling) of RAP1A” value at RAP1A is given as “auto-palmitoylated in a dose dependent manner”. For the same molecule, on IDH1WT, the “auto-palmitoylation (labeling) of IDH1 WT” value is listed as “auto-palmitoylated in a dose dependent manner”. For the same molecule, the “auto-palmitoylation (labeling) of PCNA” value at PCNA is on record as “auto-palmitoylated in a dose dependent manner”. On RRAS2, the “auto-palmitoylation (labeling) of RRAS2” value is recorded as “auto-palmitoylated in a dose dependent manner”.

`C#CCCCCCCCCCCCCCCNC(=O)CI` [Compound A21, N-(hexadec-15-yn-1-yl)-2-iodoacetamide]: on TEAD2, the “labeling efficiency of TEAD2” value is “strong labeling efficiency”. Further, in the assay with HEK293A cells, the “number of proteins collectively targeted by Compound A21, Compound B1 and Compound B4” value (“number of proteins collectively targeted” below) is “One hundred and sixty”; the “number of proteins enriched by the covalent probes also identified by SLC-ABPP” value (from here on “number of proteins enriched”) stood at 191 proteins.

For the molecule `C#CCCCCCCCCCCCCCCNS(=O)(=O)C=C` [Compound A26, N-(hexadec-15-yn-1-yl)ethenesulfonamide], the “labeling efficiency of TEAD2” value on TEAD2 is “strong labeling efficiency”.

Regarding `C#CCCCCCCCCCCCCNC(=O)CI` [Compound A63, 2-iodo-N-(tetradec-13-yn-1-yl)acetamide], the “labeling efficiency of TEAD2” value on TEAD2 is “strong labeling efficiency”.

For the molecule `C#CCCCCCCCCCCCCNS(=O)(=O)C=C` [Compound A64, N-(tetradec-13-yn-1-yl)ethenesulfonamide], on TEAD2, the “labeling efficiency of TEAD2” value is “strong labeling efficiency”.

In the case of `C#CCCCCCCCCCCCCCCNC(=O)CBr` [Compound B1, 2-bromo-N-(hexadec-15-yn-1-yl)acetamide], on TEAD2, the “labeling efficiency of TEAD2” value is “strong labeling efficiency”. Also, in the assay on HEK293A cells, the “number of proteins collectively targeted” value is “One hundred and sixty”; the “number of proteins enriched” value is given as 191 proteins.

Regarding `C#CCCCCCCCCCCCCNC(=O)CBr` [Compound B4, 2-bromo-N-(tetradec-13-yn-1-yl)acetamide], the “labeling efficiency of TEAD2” value at TEAD2 is listed as “strong labeling efficiency”. Also, the “effect of mutating cysteine 344 (C344S) on labeling of Myc-TEAD1 by the probe” value at Myc-TEAD1 C344S mutant is listed as “inhibited labeling”. Moreover, in the assay on HEK293A cells, the “number of proteins collectively targeted” value was “One hundred and sixty”; the “number of proteins enriched” value is 191 proteins.

Source of the values: patent publication US20260103438A1, “PROBES AND METHODS TO IDENTIFY LIGANDABLE FATTY ACYLATION SITES FOR THERAPEUTIC TARGET IDENTIFICATION” (The General Hospital Corporation, priority 2022, published 2026).
